Where two headings read alike, the source gives them in different places.
What was measured:
Type in all cases: cell-based, human
[1] = system: EMT markers (mesenchymal markers, ECM) in RPE cells (ARPE-19); assay: Change in expression of EMT markers (real-time PCR) in EMT-induced RPE cells; conditions: EMT-induced ARPE-19, 48 hours; for Enhancement of expression of Fibronectin, Snail and vimentin (mesenchymal markers): compound at Cmax, ½ of Cmax or ¼ of Cmax; for EMT suppression (FIG. 3 to FIG. 7) / Expression of EMT markers other than the ten common markers / Expression of Snail, Slug, CDH3, MMP1, MMP7, COL5A3, COL6A3, LAMC2, HMMR, TNC: oxaprozin 300 μM, epalrestat 30 μM, zafirlukast 3 μM, amlexanox 30 μM, zaltoprofen 30 μM
Procedure: RPE cells (ARPE-19) were seeded on a plate, and incubated for 5 days at 37° C. For the RPE cells, EMT was induced in the conditions described in Test example 1-1, and respective compounds (oxaprozin, epalrestat, zafirlukast, amlexanox, zaltoprofen) were added simultaneously, and the cells were collected after 48 hours from induction of EMT. As a control, a sample to which a compound to be assessed (test drug) is not added was used. The collected cells were washed with PBS, and 350 μL of an RLT buffer was added to prepare a lysate for RNA extraction. The respective compounds were used in the following concentrations. Oxaprozin: 300 μM, epalrestat: 30 μM, zafirlukast: 3 μM, amlexanox: 30 μM, zaltoprofen: 30 μM. Total RNA was extracted from the lysate using an RNeasy Micro kit (QIAGEN, #74004), and from 2 μg of the obtained RNA, cDNA was prepared using a SuperScript III First-Strand Synthesis SuperMix for qRT-PCR (Invitrogen, #11752-250). Using 50 ng of the obtained cDNA as a template, a real-time PCR (ABI Prism 7500 Sequence Detection System) was conducted according to the manufacturer's protocol, and expression of mRNA of each gene was quantified. Specific primers for respective genes were purchased from Invitrogen. Ct (Threshold Cycle) value of each gene was calculated as a percentage to a non-treated sample after normalization by endogenous control.
Five compounds (flufenamic acid aluminum (addition concentration: 28 μM (Cmax)), mefenamic acid (addition concentration: 39 μm (Cmax)), sulindac (addition concentration: 100 μM), tiaprofenic acid (addition concentration: 1000 μM), and seratrodast (addition concentration: 31 μM (Cmax))) were assessed for change in expression of EMT markers in the same manner as in Test example 2-1. The results are shown in FIG. 8 to FIG. 12, respectively.
(§1) RPE cells (ARPE-19) were seeded on a plate, and incubated for 5 days at 37° C. […] Each compound was added in a concentration of Cmax, ½ of Cmax or ¼ of Cmax. As a control, a sample to which a compound to be assessed (test drug) is not added was used. The collected cells were washed with PBS, and 350 μL of an RLT buffer was added to prepare a lysate for RNA extraction. Total RNA was extracted from the lysate using an RNeasy Micro kit (QIAGEN, #74004), and from 2 μg of the obtained RNA, cDNA was prepared using a SuperScript III First-Strand Synthesis SuperMix for qRT-PCR (Invitrogen, #11752-250). Using 50 ng of the obtained cDNA as a template, a real-time PCR (ABI Prism 7500 Sequence Detection System) was conducted according to the manufacturer's protocol, and expression of mRNA of each gene was quantified. Specific primers for respective genes were purchased from Invitrogen. Ct (Threshold Cycle) value of each gene was calculated as a percentage to a non-treated sample after normalization by endogenous control. For each result, a significant test (Student t test) was conducted, and when p<0.05, the result was marked with “*”, and when p<0.01, the result was marked with “**”.
RPE cells (ARPE-19) were seeded on a plate, and incubated for 5 days at 37° C. For the RPE cells, EMT was induced in the conditions described in Test example 5-1, and the five representative compounds (oxaprozin, epalrestat, zafirlukast, amlexanox, zaltoprofen) were added simultaneously, and the cells were collected after 48 hours from induction of EMT. As a control, a sample to which a compound to be assessed (test drug) is not added was used. The collected cells were washed with PBS, and 350 μL of an RLT buffer was added to prepare a lysate for RNA extraction. Total RNA was extracted from the lysate using an RNeasy Micro kit (QIAGEN, # 74004), and from 2 μg of the obtained RNA, cDNA was prepared using a SuperScript III First-Strand Synthesis SuperMix for qRT-PCR (Invitrogen, # 11752-250). […]

VEGF = assay: Change in expression of VEGF mRNA (real-time PCR) in EMT-induced RPE cells; conditions: EMT-induced ARPE-19, 48 hours, compound at Cmax, ½ of Cmax or ¼ of Cmax
Procedure: as §1
The results are shown in FIG. 16 or FIG. 17, respectively.
The VEGF suppressive effect was assessed using the cell model as described above in the same manner as in Test example 2-3. The results are shown in FIG. 18 to FIG. 20, respectively.

RPE cells (ARPE-19) = assay: Focus (drusen-like structure) formation suppression in EMT induction model of RPE cells; conditions: for Suppression of drusen-like structure formed in the RPE cell model: FIG. 35 to 39; for IC50: Homo sapiens
Procedure: RPE cells (ARPE-19) were seeded on a plate, and incubated for 5 days at 37° C. […] As a control of EMT induction, a sample to which a compound to be assessed (test drug) is not added was used. After 48 hours from EMT induction, the cells were fixed by treating with a 4% paraformaldehyde solution for 30 minutes at room temperature, and then washed three times with PBS. The cells were treated with a 0.2% Triton-X/PBS solution for 5 minutes, and washed three times with PBS. […] The fluorescent-stained cells were imaged by using an Image Express Micro (available from Molecular Devices), and digitized by using a MetaXpress2.0 (available from Molecular Devices). By analyzing the degree of formation of Focus (Focus level) from the numerical data, a Focus formation suppressing rate was calculated according to the following Formula 1 on the basis of the numerical value at the time of no addition of a compound, and the EMT suppressive effect in each compound was verified. The degree of formation of Focus (Focus level) was determined according to the number and the volume of Focus as indexes.
IC50 in the table was calculated using the following Formula 2.
A: Higher concentration sandwiching 50%
B: Lower concentration sandwiching 50%
C: Inhibition rate at lower concentration sandwiching 50%
D: Inhibition rate at higher concentration sandwiching 50%
RPE cells (ARPE-19) were seeded on a plate, and incubated for 5 days at 37° C. […] As a control of EMT induction, a sample to which a compound to be assessed (test drug) is not added was used. The cells after observation were fixed by treating with a 4% paraformaldehyde solution for 30 minutes at room temperature, and then washed three times with PBS. The cells were treated with a 0.2% Triton-X/PBS solution for 5 minutes, and washed three times with PBS. […] The fluorescent-stained cells were imaged by using an Image Express Micro (available from Molecular Devices), and digitized by using a MetaXpress2.0 (available from Molecular Devices). By analyzing the degree of formation of Focus from the numerical data, a Focus formation suppressing rate was calculated on the basis of the case without addition of a compound and the case without EMT induction, and the EMT suppressive effect in each compound was verified. […] After washing three times with methanol, the cells were dried for 3 hours at room temperature. The dried cells were observed under a microscope.

[2] = Table 1, EMT-induced ARPE-19, compound added simultaneously, 48 hours, read-out: IC50 (Focus formation suppressing rate, EMT suppressive effect)
[3] = Test example 7, EMT-induced ARPE-19, 48 hours, read-out: IC50 values in the drusen-like structure suppressing tests

Row | Compound | Enhancement of expression of Fibronectin, Snail and vimentin (mesenchymal markers) [1] | EMT suppression (FIG. 3 to FIG. 7) [1] | Expression of EMT markers other than the ten common markers [1] | Expression of Snail, Slug, CDH3, MMP1, MMP7, COL5A3, COL6A3, LAMC2, HMMR, TNC [1] | Enhancement of VEGF mRNA expression by EMT induction (VEGF) | Enhancement of VEGF mRNA expression by EMT induction (VEGF; listed as oxaprozin) | Suppression of drusen-like structure formed in the RPE cell model (RPE cells (ARPE-19); EMT-induced ARPE-19, 48 hours) | IC50 (RPE cells (ARPE-19); [2]) [µM] | IC50 (RPE cells (ARPE-19); [3]) [µM] | Enhancement of VEGF mRNA expression by EMT induction (VEGF; listed as zaltoprofen)
1 | O=C(O)CCc1nc(-c2ccccc2)c(-c2ccccc2)o1 [Oxaprozin, oxaprozin] | suppressed enhancement of expression of these in a concentration dependent manner | significantly suppress EMT | decrease in expression was observed in ZEB2, MMP3, COL1A1, COL1A2, CSPG4, and SRGN | suppressed expression | suppressed enhancement of VEGF expression in a concentration dependent manner | suppress enhancement of mRNA expression of VEGF | suppresses a drusen-like structure formed in the RPE cell model in a concentration-dependent manner | 61 | 61 | –
2 | CC(C(=O)O)c1ccc2c(c1)CC(=O)c1ccccc1S2 (stereo not drawn) [Zaltoprofen, zaltoprofen] | suppressed enhancement of expression of these in a concentration dependent manner | significantly suppress EMT | decrease in expression was observed in ZEB2, FN1, COL13A1, and CSPG4 | suppressed expression | suppressed enhancement of VEGF expression in a concentration dependent manner | – | suppresses a drusen-like structure formed in the RPE cell model in a concentration-dependent manner | 16.5 | 16.5 | suppress enhancement of mRNA expression of VEGF
